Here are results for nine molecules from PubChem BioAssay (NCI).

Values joined by “and” are separate entries in the source; they are usually repeats but may differ in a detail not shown here. Identical values can stand only once.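 In this assay, cells in 96-well plates receive the compound at five concentrations for 48 hours. Endpoints are linearly interpolated between the surrounding concentrations. Here, GI50 denotes the concentration required for 50% inhibition of growth. TGI: total growth inhibition.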

Some test systems named below: MOLT-4 leukemia; U251 CNS; OVCAR-4 ovarian; SF-295 CNS; SK-MEL-28 melanoma; RPMI-8226 leukemia; HCC-2998 colon; 786-0 renal; K-562 leukemia; OVCAR-5 ovarian.
What all share (assay): inhibition of tumour cell growth, NCI panel, 48 h

With `O=c1c(OC/C(=N/O)c2ccccc2)c(-c2ccccc2)oc2ccccc12`, the GI50 with MOLT-4 leukemia was 12.6 µM; in the experiment with U251 CNS, 11 µM; with OVCAR-4 ovarian, 38.6 µM; in the experiment with SF-295 CNS, 11.2 µM; with SK-MEL-28 melanoma it was 16.6 µM; in the experiment on RPMI-8226 leukemia, 7.07 µM. Besides, the GI50 with HCC-2998 colon was 9.64 µM; in the experiment on 786-0 renal, 19 µM; in the experiment on K-562 leukemia, 13.7 µM; with OVCAR-5 ovarian, 22.3 µM. Also, the TGI in the experiment on MOLT-4 leukemia was over 50 µM; in the experiment with U251 CNS it was 27.3 µM; with OVCAR-4 ovarian, over 50 µM; in the experiment on SF-295 CNS it was 23.2 µM; in the experiment with SK-MEL-28 melanoma, 28.9 µM; in the experiment on RPMI-8226 leukemia it was 15.6 µM. Also, the TGI in the experiment with HCC-2998 colon is 17.5 µM; in the experiment with 786-0 renal, over 50 µM; in the experiment on K-562 leukemia, over 50 µM; with OVCAR-5 ovarian, over 50 µM.
In the case of `Cc1cc(O)cc(C)c1/C=C/c1cncc(C(=O)N(C)C)c1`, the GI50 in the experiment with MOLT-4 leukemia is over 25 µM; with U251 CNS it was over 25 µM; in the experiment with OVCAR-4 ovarian, over 25 µM; in the experiment on SF-295 CNS it was over 14.8 µM; with SK-MEL-28 melanoma it was over 25 µM; in the experiment with RPMI-8226 leukemia, over 25 µM. Besides, the GI50 with HCC-2998 colon, with 786-0 renal, with K-562 leukemia and in the experiment on OVCAR-5 ovarian was over 25 µM throughout. Also, the TGI in the experiment with MOLT-4 leukemia, with U251 CNS, with OVCAR-4 ovarian, with SF-295 CNS, with SK-MEL-28 melanoma and in the experiment on RPMI-8226 leukemia was over 25 µM each time. The TGI with HCC-2998 colon, with 786-0 renal, in the experiment on K-562 leukemia and in the experiment on OVCAR-5 ovarian was over 25 µM each time.
In the case of `CCCCS(=N)(=O)CC[C@H](N)C(=O)O` (stereo partly specified), the GI50 in the experiment with MOLT-4 leukemia was 1540 µM; in the experiment with U251 CNS it was over 10000 µM; with OVCAR-4 ovarian, 13.4 µM; with SK-MEL-28 melanoma it was over 10000 µM; with RPMI-8226 leukemia it was over 8560 µM; in the experiment with HCC-2998 colon, over 10000 µM. Moreover, the GI50 in the experiment on K-562 leukemia is 11.3 µM; with OVCAR-5 ovarian, over 10000 µM. The TGI in the experiment with MOLT-4 leukemia is 3810 µM and > 10000 µM; in the experiment on U251 CNS it was over 10000 µM; in the experiment on SF-295 CNS, over 10000 µM; in the experiment on SK-MEL-28 melanoma it was over 10000 µM; in the experiment on RPMI-8226 leukemia, 4730 µM and > 10000 µM; in the experiment on HCC-2998 colon, over 10000 µM. The TGI is 434 µM and > 2460 µM in the experiment on 786-0 renal; over 10000 µM in the experiment on K-562 leukemia; over 10000 µM in the experiment with OVCAR-5 ovarian.
Regarding `OC1CCC(Oc2cccc3cnc(Nc4ccc5nc[nH]c5c4)nc23)CC1` (stereo unspecified), the GI50 with MOLT-4 leukemia was 0.157 µM; in the experiment with U251 CNS, 0.428 µM; with OVCAR-4 ovarian, 1.06 µM; in the experiment with SF-295 CNS, 0.429 µM; in the experiment on SK-MEL-28 melanoma it was 0.791 µM; with RPMI-8226 leukemia, 0.219 µM. Further, the GI50 is 0.708 µM in the experiment with HCC-2998 colon, 0.336 µM with 786-0 renal, 0.536 µM in the experiment on K-562 leukemia and 0.327 µM in the experiment on OVCAR-5 ovarian. Besides, the TGI with MOLT-4 leukemia is 0.636 µM; in the experiment with U251 CNS, 15.7 µM; in the experiment on OVCAR-4 ovarian, 16 µM; in the experiment with SF-295 CNS, 12 µM; in the experiment with SK-MEL-28 melanoma it was 6.83 µM; in the experiment with RPMI-8226 leukemia, 0.659 µM. Besides, the TGI in the experiment on HCC-2998 colon was found to be 9.09 µM; in the experiment with 786-0 renal, 10.1 µM; in the experiment on K-562 leukemia, 19.3 µM; in the experiment on OVCAR-5 ovarian it was 30.7 µM.
Regarding `O=C(N=Nc1c(O)[nH]c2ccccc12)c1ccccc1O`, the TGI in the experiment with MOLT-4 leukemia is over 100 µM; in the experiment with U251 CNS it was 72.2 µM; with OVCAR-4 ovarian it was over 100 µM; with SF-295 CNS, over 100 µM; with SK-MEL-28 melanoma, over 100 µM; in the experiment on RPMI-8226 leukemia, over 100 µM. Also, the TGI in the experiment with HCC-2998 colon, in the experiment on 786-0 renal, in the experiment with K-562 leukemia and with OVCAR-5 ovarian was over 100 µM in each case.
Regarding `COc1ccc([N+](=O)[O-])c2c(NCC(O)CO)ccnc12` (stereo unspecified), the TGI was over 100 µM with MOLT-4 leukemia; over 100 µM in the experiment with U251 CNS; 45.7 µM with OVCAR-4 ovarian; over 100 µM with SF-295 CNS; over 100 µM in the experiment with SK-MEL-28 melanoma; over 100 µM with RPMI-8226 leukemia. Also, the TGI in the experiment on HCC-2998 colon, in the experiment with 786-0 renal, with K-562 leukemia and with OVCAR-5 ovarian was over 100 µM each time.
As to `O=C1C=C(c2cc(Br)c(O)c(Br)c2)/C(=C/c2cc(Br)c(O)c(Br)c2)O1`, the GI50 was 18.4 µM in the experiment with MOLT-4 leukemia; 26.4 µM with U251 CNS; 50.4 µM in the experiment on OVCAR-4 ovarian; 29.4 µM in the experiment on SF-295 CNS; 34.8 µM with SK-MEL-28 melanoma; 22.2 µM in the experiment on RPMI-8226 leukemia. Also, the GI50 in the experiment with HCC-2998 colon was 56.1 µM; in the experiment with 786-0 renal, 35.8 µM; with K-562 leukemia, 24 µM; in the experiment on OVCAR-5 ovarian, 64.8 µM. The TGI in the experiment on MOLT-4 leukemia was 51.9 µM; in the experiment with U251 CNS, over 75 µM; with OVCAR-4 ovarian, over 75 µM; in the experiment with SF-295 CNS it was over 75 µM; in the experiment on SK-MEL-28 melanoma it was over 75 µM; in the experiment on RPMI-8226 leukemia it was 66.7 µM. Moreover, the TGI with HCC-2998 colon, in the experiment with 786-0 renal, in the experiment with K-562 leukemia and in the experiment on OVCAR-5 ovarian was over 75 µM throughout.
In the case of `CC[C@@]1(OC(=O)CCC(=O)O)C(=O)OCc2c1cc1n(c2=O)Cc2cc3ccccc3nc2-1`, the TGI with MOLT-4 leukemia is 0.163 µM; in the experiment on U251 CNS, 2.18 µM; in the experiment on OVCAR-4 ovarian, 13.3 µM; in the experiment with SF-295 CNS it was 1.78 µM; in the experiment with SK-MEL-28 melanoma, over 46.1 µM; in the experiment with RPMI-8226 leukemia, 3.87 µM. Moreover, the TGI in the experiment on HCC-2998 colon is 4.29 µM; with 786-0 renal, 0.394 µM; in the experiment with K-562 leukemia, over 61.8 µM; with OVCAR-5 ovarian, 11.9 µM.
Turning to `Cc1ccc2c(c1)sc(-c1ccc(N(C)C)cc1)[n+]2C`, the GI50 in the experiment with MOLT-4 leukemia is 1.93 µM; in the experiment with U251 CNS, 0.467 µM; in the experiment on OVCAR-4 ovarian, 1.58 µM; in the experiment with SF-295 CNS, 0.72 µM; in the experiment with SK-MEL-28 melanoma it was 3.3 µM; in the experiment with RPMI-8226 leukemia it was 0.13 µM. Further, the GI50 is 1.51 µM with HCC-2998 colon, 3.69 µM with 786-0 renal and 0.242 µM in the experiment with K-562 leukemia. Also, the TGI is over 48.7 µM in the experiment on MOLT-4 leukemia; over 76 µM with U251 CNS; over 100 µM in the experiment on OVCAR-4 ovarian; over 22.8 µM in the experiment on SF-295 CNS; 20.9 µM in the experiment with SK-MEL-28 melanoma; 5.15 µM with RPMI-8226 leukemia. Besides, the TGI was 19 µM in the experiment with HCC-2998 colon, over 45.9 µM in the experiment with 786-0 renal, over 50.3 µM in the experiment on K-562 leukemia and over 100 µM in the experiment with OVCAR-5 ovarian.
